Structures can show the parent of a compound that is named as a salt.
Assays:
[1] = test system: ovalbumin-induced constriction of respiratory tract; experiment: Respiratory tract constriction suppression action (Test Example 3); type: in vivo, Hartley guinea pigs; conditions: ovalbumin-immunized guinea pigs; test medicament via hind leg vein; 15 minutes after administration
Method: Four-week old Hartley guinea pigs (male) were immunized by intraperitoneal administration of ovalbumin (Sigma, Grade V) in amounts of 1 mg for each animal on the day on which the experiment was started, 3 mg for each animal after 2 days, and 10 mg for each animal after 4 days. Twelve to fourteen days after the final immunization, the ovalbumin-immunized guinea pigs were anesthetized by intraperitoneal administration of about 40 mg/kg of pentobarbital (Somnopentyl), and the tracheas were taken out. Subsequently, a cannula (SP-110, Natsume) was inserted into each trachea, and one end of the cannula was connected to an artificial respirator (Model-b83, Harvard). The aeration conditions were set at 6 ml per kilogram and 60 times per 1 minute. Further, a cannula for medicament administration (JMS wing needle 23G 3/4) was inserted into a hind leg vein. Myoblock (Organon Technica) was administered in an amount of 0.5 mg/kg from the cannula inserted into the hind leg vein to stop the spontaneous breathing, and after 2 or 3 minutes, 0.3 mg/kg of ovalbumin was administered to induce constriction of respiratory tract. The increase of airway resistance value 2 minutes after the induction (measurement apparatuses: pressure transducer TR-603T, respiratory amplifier AR-601G, and recorder RTA-3100, Nihon Kohden Corp.) was confirmed to be above 80 cm H2O or higher, and then, a solution of a test medicament was administered from the cannula inserted into the hind leg vein, and the airway resistance value was continuously measured for 15 minutes after the administration to determine the effect.

[2] = test system: thoracic aorta constricted with phenylephrine; experiment: Vasoconstriction inhibitory action (Test Example 2); design: species or system Rats (Wistar); conditions: result in words; rat thoracic aorta, phenylephrine
Description: Rats (Wistar, 11-week old) were bleeded to death and laparotomized to take out the thoracic aorta. That aorta was cut into a ring of a length of about 3 mm in a conventional manner (Asano, T., et al., J. Pharmacol. Exp. Ther., 241, pp. 1033–1040 (1987)) and hung in 10-ml organ bath filled with Krebs-Hensright nutrient solution bubbled with a mixed gas of 95% O2 and 5% CO2. One end of the blood vessel was connected to an isometric transducer (FD Pickup TB-912T, Nihon Kohden) and applied with 2.5 g of resting tension, and constriction and relaxation reactions of the aorta were recorded. The aorta was constricted with phenylephrine (1 μM, Sigma) and then added with a test compound (1 μM), and the vasoconstriction inhibitory action thereof was observed. The vasoconstriction inhibitory actions of the test compounds are shown in Table 6 mentioned below as the relaxation ratios, which are based on the vasoconstriction with phenylephrine immediately before the addition of the test compound taken as 100%.

[3] = molecular target: T1, myosin light chain phosphorylation enzyme (MLCK) (Gallus gallus, UniProt P11799); experiment: Action on myosin light chain phosphorylation enzyme (MLCK) activity; type: biochemical, chicken; conditions: for IC50: MLCK from chicken gizzard smooth muscle, ELISA, 100 μM ATP, read-out: Myosin light chain phosphorylation enzyme inhibitory action IC50; for inhibition of MLCK: result in words
T1 construct: purified from chicken gizzard smooth muscle by a conventional method; from tissue; host or cells: chicken gizzard smooth muscle
Method: A myosin light chain phosphorylation enzyme (MLCK) was purified from chicken gizzard smooth muscle by a conventional method (Yoshida, M., et al., J. Biochem., 99, 1027–1036 (1986)). The myosin regulatory light chain as a substrate was purified from the chicken gizzard smooth muscle by a conventional method (Grand, R. J., et al., Biochem. J., 211, 267–272 (1983)). The MLCK activity was measured by ELISA using pLC1 described in Test Example 1 (Sakurada, K., et al., J. Biochem., 115, 18–21 (1994)). The myosin regulatory light chain was diluted in phosphate-buffered saline (PBS, Sigma) to a concentration of 5.0 µg/ml, added to 96-well Immunoplate (Nunc) in a volume of 100 μl per well and left stand overnight at 4° C. Each well was washed with PBS, and 25 mM Tris/HCl buffer containing 100 μM ATP, 3 mM MgCl2, 1 mM CaCl2, 100 ng/ml of calmodulin (Sigma) and 100 ng/ml of MLCK (pH 7.4, Buffer A) was added to each well and incubated at 30° C. for 10 minutes. In a volume of 100 μl each of 20% aqueous phosphoric acid solution was added to each well to terminate the enzymatic reaction. Each well was washed with 25 mM Tris/HCl buffer (TTBS) containing 0.1% Tween 20, and then 100 μl each of pLC1 described in Test Example 1 was added to each well and incubated at room temperature for 90 minutes.
Each well was washed with TTBS, and then 100 μl of the HRP-labeled rabbit anti-mouse IgG antibodies (Bio-Rad) were added to each well and incubated at room temperature for 90 minutes. Each well was washed with TTBS, and then 25 mM citrate buffer (pH 5.0) containing orthophenylenediamine (Sigma) as a substrate of HRP and aqueous hydrogen peroxide (0.03%) was added in a volume of 100 μl per well and incubated at room temperature for 5 minutes. 50 μl of 4 N sulfuric acid was added to each well to terminate the reaction, and then absorbance was measured by using an immunoplate reader (Bio-Rad).

intraocular pressure = experiment: Intraocular pressure reducing action (Test Example 4); type: in vivo, Japanese white rabbit; conditions: for inhibition in vivo at 1 %, 50 µL: Oryctolagus cuniculus, topical, 1% aqueous solution, 50 μl dropped to the left eye, after 2 hours, read-out: Intraocular pressure reducing action (reduction ratio) (%); for intraocular pressure reducing activity: result in words, rabbit
Method: A Japanese white rabbit having a body weight of about 2 kg was placed in a positioner and naturalized for one week before the experiment. An ophthalmologic local anesthesant (Benoxil) was administered to the left eye, and then intraocular pressure was measured by using a tonometer (Classic 30, Solan). The initial value of the intraocular pressure was measured, then 50 μl of a test compound (1% aqueous solution) was dropped to the left eye, and after 2 hours, the intraocular pressure was measured. The intraocular pressure reducing action of the test compounds is shown in Table 7 mentioned below as ratios (%) of reduction of intraocular pressure based on the initial value of the intraocular pressure.

[4] = test system: OVA-induced respiratory tract inflammation; experiment: Respiratory tract inflammation suppressing action (Test Example 6); type: in vivo, BALB/c female mice; conditions: result in words; OVA mice
Method: According to the method described in Henderson, W. R., et al., Am. J. Respir. Cric. Care Med., 165(1), 108–116 (2002), suppressing action on bronchial inflammation was confirmed. BALB/c female mice (7-week old) were used for the test, each group consisting of 7 mice, and the control group consisting of 11 or 12 mice. The mice were intraperitoneally administered with ovalbumin (OVA, 100 ng, Sigma) and 1 mg of aluminum hydroxide for initial immunization, and after 2 weeks, they are subcutaneously administered with 10 ng of OVA as additional immunization. After further 1 week, a test compound was dissolved in water containing 0.5% carboxymethylcellulose and orally administered (30 mg/kg) to the test animals once a day for 5 days. The control group was similarly given only with water containing 0.5% carboxymethylcellulose. After 1 hour, the mice were orally inhaled with 2% OVA for 10 minutes to induce a respiratory tract inflammation. […] After 24 hours, alveoli in the lungs of the test animals were washed with physiological saline, and the total infiltrated white blood cells (WBC) were counted.

Structure (SMILES) | constriction of respiratory tract (airway resistance value) [1] | vasoconstriction inhibitory action [2] | IC50 [3] [µM] | inhibition in vivo at 1 %, 50 µL (intraocular pressure) [%] | infiltrated white blood cell number [4] | inhibition of MLCK [3] | intraocular pressure reducing activity (intraocular pressure)
c1cc(NC2CCCNC2)c2ccncc2c1 (racemic) [Example 29, 3-N-(5-Isoquinolyl)aminopiperidine hydrochloride] | significantly improved the constriction of respiratory tract |  |  |  |  |  | 
Cl.NCCCN(CCc1cccs1)S(=O)(=O)c1cccc2cnccc12 [Example 2, N-[(5-Isoquinolyl)sulfonyl]-N-[2-(2-thienyl)ethyl]-1,3-propylenediamine hydrochloride] | significantly improved the constriction of respiratory tract | significant vasoconstriction inhibitory action | > 50 |  |  |  | 
Cl.Nc1nccc2c(OCC3CCCNC3)cccc12 (centres unmarked) [Example 11, 3-[(1-Amino-5-isoquinolyl)oxy]methylpiperidine hydrochloride] | significantly improved the constriction of respiratory tract |  |  |  |  |  | 
Cl.NCCN(CCS(=O)(=O)c1ccccc1)S(=O)(=O)c1cccc2c(O)nccc12 [Example 12, N-[(1-Hydroxy-5-isoquinolyl)sulfonyl]-N-[2-(phenylsulfonyl)ethyl]ethylenediamine hydrochloride] | significantly improved the constriction of respiratory tract | significant vasoconstriction inhibitory action |  | 13.3 |  |  | 
Cl.c1cc(NC2CCNCC2)c2ccncc2c1 [Example 20, 4-(5-Isoquinolyl)aminopiperidine hydrochloride] | significantly improved the constriction of respiratory tract |  | > 100 | 35.7 |  |  | 
Cc1cncc2cccc(NC3CCNCC3)c12.Cl [Example 106, 4-(4-Methyl-5-isoquinolyl)aminopiperidine hydrochloride] | significantly improved the constriction of respiratory tract | significant vasoconstriction inhibitory action |  | 31.3 | decrease of infiltrated white blood cell number | did not inhibit MLCK | 
Cl.Clc1cncc2cccc(NC3CCNCC3)c12 [Example 118, 4-(4-Chloro-5-isoquinolyl)aminopiperidine hydrochloride] | significantly improved the constriction of respiratory tract |  |  | 25 |  |  | 
Cc1cncc2cccc(N[C@H]3CC[C@H](N)CC3)c12.Cl [Example 121, Trans-N-(4-methyl-5-isoquinolyl)-1,4-cyclohexanediamine hydrochloride] | significantly improved the constriction of respiratory tract | significant vasoconstriction inhibitory action |  | 31.3 |  |  | 
Cl.N[C@H]1CC[C@H](Oc2cccc3cncc(Br)c23)CC1 [Example 133, Trans-4-[(4-bromo-5-isoquinolyl)oxy]cyclohexylamine hydrochloride] | significantly improved the constriction of respiratory tract |  |  |  |  |  | significant intraocular pressure reducing activity
Cc1cncc2cccc(O[C@H]3CC[C@H](N)CC3)c12.Cl [Example 140, Trans-4-[(4-methyl-5-isoquinolyl)oxy]cyclohexylamine hydrochloride] | significantly improved the constriction of respiratory tract | significant vasoconstriction inhibitory action |  |  |  |  | significant intraocular pressure reducing activity
Cl.OCCN1CCC(Nc2cccc3cnccc23)CC1 [Example 144, 1-(2-Hydroxyethyl)-4-(5-isoquinolyl)aminopiperidine hydrochloride] | significantly improved the constriction of respiratory tract |  |  |  |  | did not inhibit MLCK | significant intraocular pressure reducing activity
Cc1cncc2cccc(NC3CCN(CCO)CC3)c12.Cl [Example 146, 1-(2-Hydroxyethyl)-4-(4-methyl-5-isoquinolyl)aminopiperidine hydrochloride] | significantly improved the constriction of respiratory tract | significant vasoconstriction inhibitory action |  |  |  |  | significant intraocular pressure reducing activity

— US7094789B2, “5-substituted isoquinoline derivatives” (Asahi Kasei Pharma Corporation, priority 2002, dated 2006)
